Measurements published in patent US10683297B2 (Sunshine Lake Pharma Co., Ltd., priority 2017, dated 2020).

Experiments:
[1] = Pharmacokinetics after intravenous and oral administration in rats; format: in vivo; conditions: for Clearance (CL) after iv dosing / AUC(0-t) / half-life / Vd: dose 1 mg/kg (Ex. 9: 0.6, Ex. 18: 0.5, Ex. 50: 0.96 mg/kg), iv dosing; for AUC(0-t) / half-life / Vd / bioavailability: rat, plasma; for Vd: read-out: Vss; for bioavailability: oral (generally 5 or 10 mg/kg) versus iv dosing, read-out: F (oral bioavailability)
How it was run: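 Rats dosed i.v. (about 0.5, 0.6, 1 or 2 mg/kg) or p.o. (5 or 10 mg/kg) as solution, suspension or capsule. Plasma sampled over 24 h and quantified by LC/MS/MS in MRM mode with ESI.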

[2] = molecular target: T1, Aurora-B (h) (Homo sapiens, UniProt Q96GD4); assay: Aurora-B (h) kinase assay; format: biochemical; conditions: [γ-33P-ATP] 10 μM or KM values; 40 minutes at room temperature
T1 construct: purchased Millipore UK Ltd (assays performed there as a service)
T1 sequence (Q96GD4 whole entry): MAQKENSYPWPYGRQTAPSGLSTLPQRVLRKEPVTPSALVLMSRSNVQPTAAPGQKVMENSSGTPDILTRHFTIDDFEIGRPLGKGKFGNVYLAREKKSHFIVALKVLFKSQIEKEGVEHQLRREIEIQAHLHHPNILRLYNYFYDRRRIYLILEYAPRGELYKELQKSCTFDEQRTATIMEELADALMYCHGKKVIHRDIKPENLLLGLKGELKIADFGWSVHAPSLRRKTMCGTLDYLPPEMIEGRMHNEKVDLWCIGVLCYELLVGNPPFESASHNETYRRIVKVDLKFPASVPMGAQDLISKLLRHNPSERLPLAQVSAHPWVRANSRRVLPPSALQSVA
Protocol: (§1) The above assay procedure can be used to determine the IC50 for inhibition and/or the inhibition constant, Ki. […] The IC50 value is estimated by preparing a 10 point curve using a ½ log dilution series (for example, a typical curve may be prepared using the following compound concentrations: 3 μM, 1 μM, 0.3 μM, 0.1 μM, 0.03 μM, 0.01 μM, 0.003 μM, 0.001 μM, 0.0003 μM and 0 μM).
Aurora-B (h) is incubated with 8 mM MOPS pH 7.0, 0.2 mM EDTA, 30 μM […], 10 mM MgAcetate and [γ-^33PATP] […] The reaction is initiated by the addition of the MgATP mix. After incubation for 40 minutes at room temperature, the reaction is stopped by the addition of a 3% phosphoric acid solution. 10 μL of the reaction is then spotted onto a P30 filtermat and washed three times for 5 minutes in 75 mM phosphoric acid and once in methanol prior to drying and scintillation counting.
(§2) The kinase assays described herein were performed at Millipore UK Ltd, Dundee Technology Park, Dundee DD2 1SW, UK.

[3] = molecular target: T2, JAK1 (h) (Homo sapiens, UniProt P23458); assay: JAK1 (h) kinase assay; format: biochemical; conditions: [γ-33P-ATP] 10 μM or KM values; 40 minutes at room temperature
T2 construct: purchased Millipore UK Ltd (assays performed there as a service)
T2 sequence (P23458 whole entry): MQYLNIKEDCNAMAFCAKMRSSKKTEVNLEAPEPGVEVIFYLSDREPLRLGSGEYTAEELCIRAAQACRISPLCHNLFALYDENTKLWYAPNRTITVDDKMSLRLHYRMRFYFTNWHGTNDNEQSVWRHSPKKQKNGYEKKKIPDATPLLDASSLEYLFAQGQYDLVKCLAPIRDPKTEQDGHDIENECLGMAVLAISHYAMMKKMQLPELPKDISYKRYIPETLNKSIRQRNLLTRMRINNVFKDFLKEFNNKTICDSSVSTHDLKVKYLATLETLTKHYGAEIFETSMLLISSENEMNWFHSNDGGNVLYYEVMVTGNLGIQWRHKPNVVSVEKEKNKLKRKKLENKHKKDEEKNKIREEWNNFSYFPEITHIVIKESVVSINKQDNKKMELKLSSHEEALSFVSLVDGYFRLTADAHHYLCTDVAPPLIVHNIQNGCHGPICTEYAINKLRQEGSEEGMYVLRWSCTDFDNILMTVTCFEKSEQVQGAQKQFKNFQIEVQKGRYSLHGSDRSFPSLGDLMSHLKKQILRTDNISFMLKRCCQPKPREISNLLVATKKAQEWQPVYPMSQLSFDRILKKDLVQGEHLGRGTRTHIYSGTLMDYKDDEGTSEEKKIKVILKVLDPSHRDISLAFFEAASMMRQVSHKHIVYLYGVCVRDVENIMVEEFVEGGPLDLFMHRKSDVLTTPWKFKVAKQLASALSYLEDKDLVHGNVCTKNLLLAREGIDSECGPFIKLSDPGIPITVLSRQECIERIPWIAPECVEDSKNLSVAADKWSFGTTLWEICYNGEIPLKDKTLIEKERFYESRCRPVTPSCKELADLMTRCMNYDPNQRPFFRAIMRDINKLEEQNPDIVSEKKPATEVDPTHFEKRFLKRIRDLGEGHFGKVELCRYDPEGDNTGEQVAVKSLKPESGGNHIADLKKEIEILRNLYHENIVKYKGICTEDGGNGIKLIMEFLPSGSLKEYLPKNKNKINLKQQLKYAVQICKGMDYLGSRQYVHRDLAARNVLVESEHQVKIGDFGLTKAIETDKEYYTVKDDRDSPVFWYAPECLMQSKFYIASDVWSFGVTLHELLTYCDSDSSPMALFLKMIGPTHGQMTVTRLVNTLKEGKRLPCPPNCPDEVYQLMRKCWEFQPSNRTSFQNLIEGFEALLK
How it was run: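 Radiometric filter-binding assay: human JAK1 incubated 40 min at room temperature in 20 mM Tris/HCl pH 7.5, 0.2 mM EDTA, 500 μM peptide substrate, 10 mM Mg acetate, with [γ-33P]ATP at 10 μM or KM. Reaction stopped with phosphoric acid; P30 filtermat scintillation counting.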

[4] = molecular target: T3, Aurora-A (h) (Homo sapiens, UniProt O14965); assay: Aurora-A (h) kinase assay; format: biochemical; conditions: [γ-33P-ATP] 10 μM or KM values; 40 minutes at room temperature
T3 construct: purchased Millipore UK Ltd (assays performed there as a service)
T3 sequence (O14965 1-403): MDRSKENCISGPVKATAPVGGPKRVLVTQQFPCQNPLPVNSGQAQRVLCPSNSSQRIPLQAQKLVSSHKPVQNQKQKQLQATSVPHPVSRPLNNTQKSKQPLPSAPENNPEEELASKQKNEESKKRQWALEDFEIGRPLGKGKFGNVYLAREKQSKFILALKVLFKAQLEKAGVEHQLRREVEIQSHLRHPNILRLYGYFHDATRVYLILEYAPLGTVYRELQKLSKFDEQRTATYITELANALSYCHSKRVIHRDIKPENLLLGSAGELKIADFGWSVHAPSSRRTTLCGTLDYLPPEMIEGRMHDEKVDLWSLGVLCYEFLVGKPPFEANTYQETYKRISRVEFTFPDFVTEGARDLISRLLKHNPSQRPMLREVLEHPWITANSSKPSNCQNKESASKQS
Protocol: as §1
Aurora-A (h) is incubated with 8 mM MOPS pH 7.0, 0.2 mM EDTA, 200 μM LRRASLG (Kemptide), 10 mM MgAcetate and [γ-^33P-ATP] […] The reaction is initiated by the addition of the MgATP mix. After incubation for 40 minutes at room temperature, the reaction is stopped by the addition of 3% phosphoric acid solution. 10 μL of the reaction is then spotted onto a P30 filtermat and washed three times for 5 minutes in 75 mM phosphoric acid and once in methanol prior to drying and scintillation counting.
as §2

CCC1CN(c2ccc(C#N)cn2)CCC1Nc1nc(Nc2ccn3c(C)cnc3c2)ncc1Cl (stereo not shown) [Example 2, 6-(4-((5-chloro-2-((3-methylimidazo[1,2-a]pyridin-7-yl)amino)pyrimidin-4-yl)amino)-3-ethylpiperidin-1-yl)nicotinonitrile]
Clearance (CL) after iv dosing [1]: 8.5 mL/min/kg | AUC(0-t) [1]: 1960 ng·h/mL | half-life [1]: 1.1 h | Vd [1]: 0.73 L/kg | bioavailability [1]: 50.2% | IC50 [2]: 46 nM | IC50 [3]: 1 nM

CCC1CN(c2ccc(C#N)nn2)CCC1Nc1nc(Nc2ccn3c(C)cnc3c2)ncc1Cl (stereo not shown) [Example 3, 6-(4-((5-chloro-2-((3-methylimidazo[1,2-a]pyridin-7-yl)amino)pyrimidin-4-yl)amino)-3-ethylpiperidin-1-yl)pyridazine-3-carbonitrile]
IC50 [2]: 102 nM | IC50 [3]: 0.6 nM

N#Cc1ccc(N2CCC(Nc3nc(Nc4ccn5c(C(F)F)nnc5c4)ncc3Cl)CC2)nc1 [Example 30, 6-(4-((5-chloro-2-((3-(difluoromethyl)-[1,2,4]triazolo[4,3-a]pyridin-7-yl)amino)pyrimidin-4-yl)amino)piperidin-1-yl)nicotinonitrile]
Clearance (CL) after iv dosing [1]: 2.83 mL/min/kg | AUC(0-t) [1]: 5130 ng·h/mL | half-life [1]: 2.61 h | Vd [1]: 0.61 L/kg | bioavailability [1]: 116% | IC50 [4]: 630 nM | IC50 [3]: 0.9 nM

Cc1nc2cc(Nc3ncc(Cl)c(NC4CCN(c5ccc(C#N)cn5)CC4)n3)ccn2n1 [Example 32, 6-(4-((5-chloro-2-((2-methyl-[1,2,4]triazolo[1,5-a]pyridin-7-yl)amino)pyrimidin-4-yl)amino)piperidin-1-yl)nicotinonitrile]
Clearance (CL) after iv dosing [1]: 14.2 mL/min/kg | AUC(0-t) [1]: 2020 ng·h/mL | half-life [1]: 1.53 h | Vd [1]: 0.96 L/kg | bioavailability [1]: 180% | IC50 [4]: 662 nM | IC50 [3]: 0.5 nM

CC(C)(O)c1nc2cc(Nc3ncc(Cl)c(NC4CCN(c5ccc(C#N)cn5)CC4)n3)ccn2n1 [Example 39, 6-(4-((5-chloro-2-((2-(2-hydroxypropan-2-yl)-[1,2,4]triazolo[1,5-a]pyridin-7-yl)amino)pyrimidin-4-yl)amino)piperidin-1-yl)nicotinonitrile]
Clearance (CL) after iv dosing [1]: 5.83 mL/min/kg | AUC(0-t) [1]: 2830 ng·h/mL | half-life [1]: 4.65 h | Vd [1]: 1.25 L/kg | bioavailability [1]: 52% | IC50 [4]: 708 nM | IC50 [3]: 0.6 nM

CC(C)(O)c1nnc2cc(Nc3ncc(Cl)c(NC4CCN(c5ccc(C#N)cn5)CC4)n3)ccn12 [Example 40]
IC50 [4]: 119 nM | IC50 [3]: < 0.3 nM

Cn1cnc2cc(Nc3ncc(Cl)c(NC4CCN(c5ccc(C#N)cn5)CC4)n3)ccc21 [Example 46, 6-(4-((5-chloro-2-((1-methyl-1H-benzo[d]imidazol-5-yl)amino)pyrimidin-4-yl)amino)piperidin-1-yl)nicotinonitrile]
Clearance (CL) after iv dosing [1]: 4.83 mL/min/kg | AUC(0-t) [1]: 3400 ng·h/mL | half-life [1]: 1.01 h | Vd [1]: 0.42 L/kg | bioavailability [1]: 126% | IC50 [4]: 187 nM | IC50 [3]: < 0.3 nM

Cn1nnc2cc(Nc3ncc(Cl)c(NC4CCN(c5ccc(C#N)nn5)CC4)n3)ccc21 [Example 47, 6-(4-((5-chloro-2-((l-methyl-1H-benzo[d][1,2,3]triazol-5-yl)amino)pyrimidin-4-yl)amino)piperidin-1-yl)pyridazine-3-carbonitrile]
Clearance (CL) after iv dosing [1]: 11.7 mL/min/kg | AUC(0-t) [1]: 1490 ng·h/mL | half-life [1]: 0.78 h | Vd [1]: 0.87 L/kg | bioavailability [1]: 144% | IC50 [4]: 116 nM | IC50 [3]: < 0.3 nM

Cc1nc2cc(Nc3ncc(Cl)c(NC4CCN(c5ccc(C#N)cn5)CC4)n3)ccc2n1C [Example 48, 6-(4-((5-chloro-2-((1,2-dimethyl-1H-benzo[d]imidazol-5-yl)amino)pyrimidin-4-yl)amino)piperidin-1-yl)nicotinonitrile]
Clearance (CL) after iv dosing [1]: 11.2 mL/min/kg | AUC(0-t) [1]: 1510 ng·h/mL | half-life [1]: 1.08 h | Vd [1]: 0.89 L/kg | bioavailability [1]: 79.4% | IC50 [4]: 315 nM | IC50 [3]: < 0.3 nM

CC(O)Cc1nc2cc(Nc3ncc(Cl)c(NC4CCN(c5ccc(C#N)nn5)CC4)n3)ccn2n1 (stereo not shown) [Example 56, 6-(4-((5-chloro-2-((2-(2-hydroxypropyl)-[1,2,4]triazolo[1,5-a]pyridin-7-yl)amino)pyrimidin-4-yl)amino)piperidin-1-yl)pyridazine-3-carbonitrile]
IC50 [4]: > 300 nM | IC50 [3]: 0.5 nM

CC(C)(O)c1cnc2cc(Nc3ncc(Cl)c(NC4CCN(c5ccc(C#N)cn5)CC4)n3)ccn12 [Example 68, 6-(4-((5-chloro-2-((3-(2-hydroxypropan-2-yl)imidazo[1,2-a]pyridin-7-yl)amino)pyrimidin-4-yl)amino)piperidin-1-yl)nicotinonitrile]
Clearance (CL) after iv dosing [1]: 15 mL/min/kg | AUC(0-t) [1]: 1090 ng·h/mL | half-life [1]: 1.34 h | Vd [1]: 1.51 L/kg | IC50 [2]: 223 nM | IC50 [3]: 0.3 nM

CC(C)(O)c1cn2ccc(Nc3ncc(Cl)c(NC4CCN(c5ccc(C#N)cn5)CC4)n3)cc2n1 [Example 70, 6-(4-((5-chloro-2-((2-(2-hydroxypropan-2-yl)imidazo[1,2-a]pyridin-7-yl)amino)pyrimidin-4-yl)amino)piperidin-1-yl)nicotinonitrile]
Clearance (CL) after iv dosing [1]: 19.3 mL/min/kg | AUC(0-t) [1]: 860 ng·h/mL | half-life [1]: 0.94 h | Vd [1]: 1.39 L/kg | bioavailability [1]: 23.5% | IC50 [2]: 125 nM | IC50 [3]: 0.5 nM

CC(C)(O)Cc1cn2cc(Nc3ncc(Cl)c(NC4CCN(c5ccc(C#N)cn5)CC4)n3)ccc2n1 [Example 73, 6-(4-((5-chloro-2-((2-(2-hydroxy-2-methylpropyl)imidazo[1,2-a]pyridin-6-yl)amino)pyrimidin-4-yl)amino)piperidin-1-yl)nicotinonitrile]
Clearance (CL) after iv dosing [1]: 36.5 mL/min/kg | AUC(0-t) [1]: 464 ng·h/mL | half-life [1]: 0.7 h | Vd [1]: 1.8 L/kg | bioavailability [1]: 56.4% | IC50 [2]: 13 nM | IC50 [3]: 1 nM

CC(C)(O)Cc1nnc2cc(Nc3ncc(Cl)c(NC4CCN(c5ccc(C#N)cn5)CC4)n3)ccn12 [Example 74, 6-(4-((5-chloro-2-((3-(2-hydroxy-2-methylpropyl)-[1,2,4]triazolo[4,3-a]pyridin-7-yl)amino)pyrimidin-4-yl)amino)piperidin-1-yl)nicotinonitrile]
IC50 [2]: 46 nM | IC50 [3]: 0.7 nM

CC(C)(O)Cc1nnc2cc(Nc3ncc(Cl)c(NC4CCN(c5ccc(C#N)nn5)CC4)n3)ccn12 [Example 75, 6-(4-((5-chloro-2-((3-(2-hydroxy-2-methylpropyl)-[1,2,4]triazolo[4,3-a]pyridin-7-yl)amino)pyrimidin-4-yl)amino)piperidin-1-yl)pyridazine-3-carbonitrile]
IC50 [2]: 184 nM | IC50 [3]: 1 nM

CC(C)(O)Cc1nc2ccc(Nc3ncc(Cl)c(NC4CCN(c5ccc(C#N)nn5)CC4)n3)cn2n1 [Example 79, 6-(4-((5-chloro-2-((2-(2-hydroxy-2-methylpropyl)-[1,2,4]triazolo[1,5-a]pyridin-6-yl)amino)pyrimidin-4-yl)amino)piperidin-1-yl)pyridazine-3-carbonitrile]
Clearance (CL) after iv dosing [1]: 272 mL/min/kg | AUC(0-t) [1]: 1020 ng·h/mL | half-life [1]: 0.762 h | Vd [1]: 1.23 L/kg | bioavailability [1]: 42.1% | IC50 [3]: 1 nM
